Series [1] in a line: DRUGMATRIX: GABAA, Muscimol, Central radioligand binding (ligand: [3H] Muscimol). The class given is cell membranes, Rattus norvegicus, Wistar, Brain, Membrane. Conditions: Not Active = under 50% inhibition at 10 µM.
For the next series, the target named is D(3) dopamine receptor (Homo sapiens, UniProt P35462). Kind of series: DRUGMATRIX: Dopamine D3 radioligand binding (ligand: [3H] Spiperone). The format is cell membranes, CHO, Membrane. Conditions: cho.
The nature of series [2]: DRUGMATRIX: GABAA, Chloride Channel, TBOB radioligand binding (ligand: [3H] TBOB). The class given is cell membranes, Rattus norvegicus, Wistar, Cerebral cortex, Membrane. To be noted: Not Active = under 50% inhibition at 10 µM.
A short description of series [3]: DRUGMATRIX: Interleukin IL-1 radioligand binding (ligand: [125I] interleukin 1beta). The class given is cell membranes, Membrane. Conditions: nih3t3; Not Active = under 50% inhibition at 10 µM.
A short description of series [4]: DRUGMATRIX: GABAA, Flunitrazepam, Central radioligand binding (ligand: [3H] Flunitrazepam). The class given is cell membranes, Rattus norvegicus, Wistar, Brain, Membrane. To be noted: Not Active = under 50% inhibition at 10 µM.
Series [5] addresses Voltage-gated inwardly rectifying potassium channel KCNH2 (Homo sapiens, UniProt Q12809). Conditions: hek293.

D(3) dopamine receptor, sequence (P35462 whole entry): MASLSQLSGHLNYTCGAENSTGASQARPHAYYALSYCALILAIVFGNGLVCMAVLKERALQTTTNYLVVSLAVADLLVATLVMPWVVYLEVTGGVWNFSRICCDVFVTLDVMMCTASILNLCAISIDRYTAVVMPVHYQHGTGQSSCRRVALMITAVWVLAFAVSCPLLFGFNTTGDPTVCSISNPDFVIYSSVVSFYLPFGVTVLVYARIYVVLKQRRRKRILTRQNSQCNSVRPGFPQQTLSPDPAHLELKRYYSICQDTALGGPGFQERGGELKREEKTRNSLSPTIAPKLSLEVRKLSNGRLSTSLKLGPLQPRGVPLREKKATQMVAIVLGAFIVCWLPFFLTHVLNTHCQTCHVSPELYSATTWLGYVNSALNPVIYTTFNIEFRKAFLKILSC
Voltage-gated inwardly rectifying potassium channel KCNH2, sequence (Q12809 whole entry): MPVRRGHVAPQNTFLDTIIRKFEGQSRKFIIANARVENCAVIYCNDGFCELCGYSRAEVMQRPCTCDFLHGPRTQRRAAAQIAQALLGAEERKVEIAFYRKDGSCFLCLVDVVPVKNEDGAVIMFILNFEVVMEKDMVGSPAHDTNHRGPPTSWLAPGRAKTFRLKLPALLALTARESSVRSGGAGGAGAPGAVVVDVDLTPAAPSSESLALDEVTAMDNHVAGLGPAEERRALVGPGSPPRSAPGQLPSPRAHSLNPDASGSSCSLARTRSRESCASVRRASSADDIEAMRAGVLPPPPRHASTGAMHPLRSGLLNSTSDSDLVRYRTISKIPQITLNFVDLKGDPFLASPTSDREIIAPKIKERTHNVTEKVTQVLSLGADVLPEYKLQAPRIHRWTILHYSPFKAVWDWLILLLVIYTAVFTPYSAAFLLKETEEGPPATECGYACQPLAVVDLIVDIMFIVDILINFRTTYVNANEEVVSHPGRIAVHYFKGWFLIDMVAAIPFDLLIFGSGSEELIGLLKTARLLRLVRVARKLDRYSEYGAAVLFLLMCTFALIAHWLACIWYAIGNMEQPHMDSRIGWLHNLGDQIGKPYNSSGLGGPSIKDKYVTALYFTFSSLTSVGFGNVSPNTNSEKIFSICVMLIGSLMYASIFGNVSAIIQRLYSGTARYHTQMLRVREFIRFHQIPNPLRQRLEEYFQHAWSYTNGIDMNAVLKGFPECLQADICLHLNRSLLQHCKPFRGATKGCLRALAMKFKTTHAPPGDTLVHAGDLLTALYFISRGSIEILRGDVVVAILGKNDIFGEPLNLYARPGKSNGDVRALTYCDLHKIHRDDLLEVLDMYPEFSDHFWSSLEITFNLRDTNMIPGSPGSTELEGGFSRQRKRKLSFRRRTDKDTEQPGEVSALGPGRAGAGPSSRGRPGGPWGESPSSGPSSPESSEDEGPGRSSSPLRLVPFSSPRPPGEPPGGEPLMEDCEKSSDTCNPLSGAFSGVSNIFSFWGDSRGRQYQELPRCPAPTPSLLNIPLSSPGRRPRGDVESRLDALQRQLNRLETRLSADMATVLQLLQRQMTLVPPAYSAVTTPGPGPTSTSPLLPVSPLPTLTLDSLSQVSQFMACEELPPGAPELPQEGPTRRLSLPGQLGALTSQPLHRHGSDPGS

As for `Oc1cccc(O)c1O` [PYROGALLOL], the IC50 entry (in series [1]; on D(3) dopamine receptor; in series [2]; in series [3]; in series [4]; in series [5]) was “Not Active” in each case. The Ki result in series [1], in series [2], in series [3], in series [4] and in series [5] was “Not Active” throughout.

As to AURANOFIN, the IC50 result in series [1] was “Not Active”; at D(3) dopamine receptor (read-out: IC50), 0.659 µM; in series [2], “Not Active”; in series [3], “Not Active”; in series [4], “Not Active”; in series [5] it was “Not Active”. Moreover, the Ki entry in series [1] is “Not Active”; at D(3) dopamine receptor (read-out: Ki), 0.224 µM; in series [2], “Not Active”; in series [3], “Not Active”; in series [4] it was “Not Active”; in series [5] it was “Not Active”.

Consider GADOPENTETATE DIMEGLUMINE, for which the IC50 entry (in series [1]; at D(3) dopamine receptor; in series [2]; in series [3]; in series [4]; in series [5]) was “Not Active” in each case. For the same compound, the Ki result (in series [1]; on D(3) dopamine receptor; in series [2]; in series [3]; in series [4]; in series [5]) was “Not Active” each time.

As to GENTAMICIN, the IC50 entry (in series [1]; at D(3) dopamine receptor; in series [2]; in series [3]; in series [4]; in series [5]) was “Not Active” throughout. The Ki result (in series [1]; at D(3) dopamine receptor; in series [2]; in series [3]; in series [4]; in series [5]) was “Not Active” each time.

Regarding GRAMICIDIN, the IC50 result (in series [1]; on D(3) dopamine receptor; in series [2]; in series [3]; in series [4]; in series [5]) was “Not Active” throughout. The inhibitory constant (Ki) entry (in series [1]; at D(3) dopamine receptor; in series [2]; in series [3]; in series [4]; in series [5]) was “Not Active” in each case.

Turning to NYSTATIN, the concentration for half-maximal inhibition (IC50) result (in series [1]; at D(3) dopamine receptor; in series [2]; in series [3]; in series [4]; in series [5]) was “Not Active” each time. Also, the Ki entry (in series [1]; on D(3) dopamine receptor; in series [2]; in series [3]; in series [4]; in series [5]) was “Not Active” in each case.

Values taken from ChEMBL document CHEMBL1909046, “DrugMatrix in vitro pharmacology data”.
